Patent US7994140B2, “Classes of compounds that interact with GPCRs” (Alchemia Limited, priority 2002, dated 2011)

Target: T1, MC4 (Homo sapiens, UniProt P32245)
T1 construct: purchased Perkin Elmer BioSignal; host or cells: HEK 293
Assay: GPCR radioligand binding (RLB) assay, melanocortin MC4, [125I]NDP-αMSH
Details: 4.0 Micromolar; Example Library 12
Outline: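 Competition binding against radioligand ([125I]NDP-αMSH for MC4, [125I]SST-14 for SST5) on membranes of HEK 293 cells carrying the human receptor; buffer and incubation time optimized per receptor. Filtration through 0.5% PEI-treated glass fiber, washing, then scintillation counting.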

T1 sequence (P32245 whole entry): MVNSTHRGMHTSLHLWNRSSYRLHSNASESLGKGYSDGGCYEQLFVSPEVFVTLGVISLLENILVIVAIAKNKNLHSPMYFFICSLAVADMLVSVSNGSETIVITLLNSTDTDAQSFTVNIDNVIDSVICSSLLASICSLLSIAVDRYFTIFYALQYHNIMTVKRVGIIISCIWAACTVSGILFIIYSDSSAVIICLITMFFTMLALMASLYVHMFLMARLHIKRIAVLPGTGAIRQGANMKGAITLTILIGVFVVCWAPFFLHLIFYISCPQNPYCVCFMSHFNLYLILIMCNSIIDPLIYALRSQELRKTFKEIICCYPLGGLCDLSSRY

| Compound | MC4 Inhibition at 4.0 Micromolar |
| --- | --- |
| N=C(N)NCC(=O)N[C@H]1C(OCc2ccccc2)O[C@H](COCc2ccc3ccccc3c2)[C@@H](O)[C@@H]1OCc1ccc2ccccc2c1 (stereo partly shown) [Compound 437] | + (Indicates inhibition greater than . . . 50%) |
| N=C(N)NCC(=O)N[C@H]1C(OCc2ccccc2)O[C@H](COCc2ccccc2)[C@@H](O)[C@@H]1OCc1ccc2ccccc2c1 (stereo partly shown) [Compound 438] | + (Indicates inhibition greater than . . . 50%) |
| N=C(N)NCC(=O)N[C@H]1C(OCc2ccccc2)O[C@H](COCc2ccc(Cl)cc2)[C@@H](O)[C@@H]1OCc1ccc2ccccc2c1 (stereo partly shown) [Compound 439] | + (Indicates inhibition greater than . . . 50%) |
| N=C(N)NCC(=O)N[C@H]1C(OCc2ccccc2)O[C@H](COCc2ccc(Cl)cc2)[C@@H](O)[C@@H]1OCc1ccc2ccccc2c1 (stereo partly shown) [Compound 440] | + (Indicates inhibition greater than . . . 50%) |
| N=C(N)NCC(=O)N[C@H]1C(OCc2ccccc2)O[C@H](COCc2ccc3ccccc3c2)[C@@H](O)[C@@H]1OCc1ccc(-c2ccccc2)cc1 (stereo partly shown) [Compound 441] | + (Indicates inhibition greater than . . . 50%) |
| N=C(N)NCC(=O)N[C@H]1C(OCc2ccccc2)O[C@H](COCc2ccccc2)[C@@H](O)[C@@H]1OCc1ccc(-c2ccccc2)cc1 (stereo partly shown) [Compound 442] | + (Indicates inhibition greater than . . . 50%) |
| N=C(N)NCC(=O)N[C@H]1C(OCc2ccccc2)O[C@H](COCc2ccccc2)[C@@H](O)[C@@H]1OCc1ccc(-c2ccccc2)cc1 (stereo partly shown) [Compound 443] | + (Indicates inhibition greater than . . . 50%) |
| N=C(N)NCC(=O)N[C@H]1C(OCc2ccccc2)O[C@H](COCc2ccc(Cl)cc2)[C@@H](O)[C@@H]1OCc1ccc(-c2ccccc2)cc1 (stereo partly shown) [Compound 444] | + (Indicates inhibition greater than . . . 50%) |
| N=C(N)NCC(=O)N[C@H]1C(OCc2ccccc2)O[C@H](COCc2ccc(Cl)cc2)[C@@H](O)[C@@H]1OCc1ccc(-c2ccccc2)cc1 (stereo partly shown) [Compound 445] | + (Indicates inhibition greater than . . . 50%) |
| N=C(N)NCCC(=O)N[C@H]1C(OCc2ccccc2)O[C@H](COCc2ccc3ccccc3c2)[C@@H](O)[C@@H]1OCc1ccc(Cl)cc1 (stereo partly shown) [Compound 446] | + (Indicates inhibition greater than . . . 50%) |
| N=C(N)NCCC(=O)N[C@H]1C(OCc2ccccc2)O[C@H](COCc2ccc3ccccc3c2)[C@@H](O)[C@@H]1OCc1ccc(Cl)cc1 (stereo partly shown) [Compound 447] | + (Indicates inhibition greater than . . . 50%) |
| N=C(N)NCCC(=O)N[C@H]1C(OCc2ccccc2)O[C@H](COCc2ccccc2)[C@@H](O)[C@@H]1OCc1ccc(Cl)cc1 (stereo partly shown) [Compound 448] | + (Indicates inhibition greater than . . . 50%) |
| N=C(N)NCCC(=O)N[C@H]1C(OCc2ccccc2)O[C@H](COCc2ccccc2)[C@@H](O)[C@@H]1OCc1ccc(Cl)cc1 (stereo partly shown) [Compound 449] | + (Indicates inhibition greater than . . . 50%) |
| N=C(N)NCCC(=O)N[C@H]1C(OCc2ccccc2)O[C@H](COCc2ccc(Cl)cc2)[C@@H](O)[C@@H]1OCc1ccc(Cl)cc1 (stereo partly shown) [Compound 450] | + (Indicates inhibition greater than . . . 50%) |
| N=C(N)NCCC(=O)N[C@H]1C(OCc2ccccc2)O[C@H](COCc2ccc(Cl)cc2)[C@@H](O)[C@@H]1OCc1ccc(Cl)cc1 (stereo partly shown) [Compound 451] | + (Indicates inhibition greater than . . . 50%) |
| N=C(N)NCCC(=O)N[C@H]1C(OCc2ccccc2)O[C@H](COCc2ccc3ccccc3c2)[C@@H](O)[C@@H]1OCc1ccc2ccccc2c1 (stereo partly shown) [Compound 452] | + (Indicates inhibition greater than . . . 50%) |
